From ChEMBL document CHEMBL5465560, “Selectivity Literature for EUbOPEN Chemogenomic Library” (2024) come the findings set out here.

Assay [1] concerns the target T1, Interleukin-1 receptor-associated kinase 4 (Homo sapiens) (UniProt Q9NWZ3).
T1 sequence (whole entry): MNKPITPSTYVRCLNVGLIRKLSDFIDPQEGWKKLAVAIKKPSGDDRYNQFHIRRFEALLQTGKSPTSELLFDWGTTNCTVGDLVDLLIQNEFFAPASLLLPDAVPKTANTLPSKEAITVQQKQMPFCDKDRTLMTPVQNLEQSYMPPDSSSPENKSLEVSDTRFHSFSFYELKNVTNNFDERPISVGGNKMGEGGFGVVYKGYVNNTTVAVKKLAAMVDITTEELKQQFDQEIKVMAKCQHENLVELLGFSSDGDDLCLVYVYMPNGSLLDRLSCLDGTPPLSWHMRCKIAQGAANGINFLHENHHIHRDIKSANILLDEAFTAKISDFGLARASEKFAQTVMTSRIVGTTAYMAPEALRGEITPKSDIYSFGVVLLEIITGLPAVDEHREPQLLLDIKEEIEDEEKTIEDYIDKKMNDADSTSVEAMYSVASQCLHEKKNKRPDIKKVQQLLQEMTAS
As to the kind of experiment: Selectivity interaction (Upstate Kinase Profiler service (Millipore)) EUB0000056c IRAK4. Conditions: at 1 µM.

Assay [2] deals with STE20-like serine/threonine-protein kinase (Homo sapiens, UniProt Q9H2G2). As to the kind of experiment: Selectivity interaction (Ambit KINOMEscan and KiNATiv profiling in Jurkat cells) EUB0000090b SLK. It counts as cell-based. The settings on record: at 1 µM.
Assay [3] concerns the target T2, Serine/threonine-protein kinase DCLK2 (Homo sapiens) (UniProt Q8N568).
T2 sequence (whole entry): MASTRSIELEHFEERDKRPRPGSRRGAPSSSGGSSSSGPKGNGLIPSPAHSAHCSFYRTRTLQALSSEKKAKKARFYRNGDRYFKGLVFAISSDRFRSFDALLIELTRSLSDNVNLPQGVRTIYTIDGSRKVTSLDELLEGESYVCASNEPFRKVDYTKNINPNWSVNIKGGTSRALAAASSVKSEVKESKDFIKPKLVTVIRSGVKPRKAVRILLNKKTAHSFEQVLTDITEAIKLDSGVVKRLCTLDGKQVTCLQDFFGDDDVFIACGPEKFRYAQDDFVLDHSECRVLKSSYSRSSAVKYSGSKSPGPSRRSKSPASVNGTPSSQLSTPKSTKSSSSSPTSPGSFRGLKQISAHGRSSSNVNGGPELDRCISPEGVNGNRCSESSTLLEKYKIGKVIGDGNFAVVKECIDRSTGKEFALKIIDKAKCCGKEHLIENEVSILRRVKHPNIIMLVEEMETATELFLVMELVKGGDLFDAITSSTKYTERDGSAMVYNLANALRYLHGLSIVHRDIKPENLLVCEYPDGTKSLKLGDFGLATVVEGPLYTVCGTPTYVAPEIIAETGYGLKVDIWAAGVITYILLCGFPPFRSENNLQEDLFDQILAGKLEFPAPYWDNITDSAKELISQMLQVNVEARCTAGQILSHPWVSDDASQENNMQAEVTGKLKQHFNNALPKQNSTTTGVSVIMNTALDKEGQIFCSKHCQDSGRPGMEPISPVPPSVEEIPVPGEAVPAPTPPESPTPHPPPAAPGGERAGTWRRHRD
In words: Selectivity interaction (KinomeScan (DiscoverX)) EUB0000666a DCLK2. Conditions: at 10 µM.

For assay [4], the target named is Ribosomal protein S6 kinase alpha-4 (Homo sapiens) (UniProt O75676). As to the kind of experiment: Selectivity interaction (Kinase panel (Invitrogen)) EUB0000639a RPS6KA4. Conditions: at 200 nM.
The target in assay [5] is T3, Serine/threonine-protein kinase ULK1 (Homo sapiens) (UniProt O75385).
T3 sequence (whole entry): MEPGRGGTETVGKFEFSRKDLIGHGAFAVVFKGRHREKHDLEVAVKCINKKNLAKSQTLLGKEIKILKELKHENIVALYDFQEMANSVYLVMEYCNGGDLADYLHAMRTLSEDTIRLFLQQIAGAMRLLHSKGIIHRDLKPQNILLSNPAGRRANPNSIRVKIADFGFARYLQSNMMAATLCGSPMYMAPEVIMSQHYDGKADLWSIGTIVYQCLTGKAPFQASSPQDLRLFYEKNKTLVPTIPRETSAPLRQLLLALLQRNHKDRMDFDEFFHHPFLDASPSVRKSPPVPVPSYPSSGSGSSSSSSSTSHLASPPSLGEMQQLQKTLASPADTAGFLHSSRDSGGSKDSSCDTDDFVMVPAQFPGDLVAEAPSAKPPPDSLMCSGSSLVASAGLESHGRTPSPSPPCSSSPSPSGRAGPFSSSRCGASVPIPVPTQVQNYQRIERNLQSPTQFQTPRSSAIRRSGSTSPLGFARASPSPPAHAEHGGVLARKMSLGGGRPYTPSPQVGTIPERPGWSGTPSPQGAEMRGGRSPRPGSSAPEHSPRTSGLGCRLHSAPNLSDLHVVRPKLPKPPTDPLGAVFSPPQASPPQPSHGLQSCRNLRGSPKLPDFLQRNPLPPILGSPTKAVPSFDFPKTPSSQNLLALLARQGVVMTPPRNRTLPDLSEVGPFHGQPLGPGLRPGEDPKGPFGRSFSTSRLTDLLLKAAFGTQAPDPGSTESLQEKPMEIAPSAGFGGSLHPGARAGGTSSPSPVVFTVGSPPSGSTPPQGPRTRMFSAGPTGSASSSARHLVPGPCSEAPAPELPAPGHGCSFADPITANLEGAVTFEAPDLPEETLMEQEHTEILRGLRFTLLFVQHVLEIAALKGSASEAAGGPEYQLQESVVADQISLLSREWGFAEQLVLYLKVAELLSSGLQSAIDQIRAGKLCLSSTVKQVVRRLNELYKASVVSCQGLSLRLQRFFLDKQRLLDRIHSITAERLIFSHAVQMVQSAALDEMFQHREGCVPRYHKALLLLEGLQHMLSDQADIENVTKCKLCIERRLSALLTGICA
In words: Selectivity interaction (Kinase panel (KiNativ target engagement assay in Jurkat cells)) EUB0001635a ULK1. The settings on record: Selectivity number of off-targets 0.0, Selectivity number of targets 233.0, Source Knowledge https://www.sciencedirect.com/science/article/pii/S2451945619300674?via%3Dihub, at 1 µM. The format is cell-based.

Sequence of Ribosomal protein S6 kinase alpha-4 (Homo sapiens) (O75676 whole entry, looked up): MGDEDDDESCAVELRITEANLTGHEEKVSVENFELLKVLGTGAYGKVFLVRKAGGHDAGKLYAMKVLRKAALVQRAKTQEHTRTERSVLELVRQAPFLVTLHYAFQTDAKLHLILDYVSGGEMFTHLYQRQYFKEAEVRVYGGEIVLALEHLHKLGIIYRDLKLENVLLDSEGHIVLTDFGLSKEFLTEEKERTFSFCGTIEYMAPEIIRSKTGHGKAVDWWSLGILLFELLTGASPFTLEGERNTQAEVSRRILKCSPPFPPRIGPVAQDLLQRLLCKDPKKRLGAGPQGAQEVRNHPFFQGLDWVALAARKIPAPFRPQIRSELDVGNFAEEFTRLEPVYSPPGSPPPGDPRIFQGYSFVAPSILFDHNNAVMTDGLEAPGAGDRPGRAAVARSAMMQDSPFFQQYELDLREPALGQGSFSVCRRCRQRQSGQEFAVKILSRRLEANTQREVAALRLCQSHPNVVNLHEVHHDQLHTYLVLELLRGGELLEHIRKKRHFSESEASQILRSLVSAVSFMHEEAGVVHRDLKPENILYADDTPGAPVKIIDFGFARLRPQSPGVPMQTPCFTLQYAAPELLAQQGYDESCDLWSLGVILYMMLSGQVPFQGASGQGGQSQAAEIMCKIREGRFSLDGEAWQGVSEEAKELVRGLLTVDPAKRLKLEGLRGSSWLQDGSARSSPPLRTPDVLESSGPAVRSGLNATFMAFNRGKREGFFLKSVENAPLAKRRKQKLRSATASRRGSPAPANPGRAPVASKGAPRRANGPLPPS
Sequence of STE20-like serine/threonine-protein kinase (Q9H2G2 whole entry, looked up): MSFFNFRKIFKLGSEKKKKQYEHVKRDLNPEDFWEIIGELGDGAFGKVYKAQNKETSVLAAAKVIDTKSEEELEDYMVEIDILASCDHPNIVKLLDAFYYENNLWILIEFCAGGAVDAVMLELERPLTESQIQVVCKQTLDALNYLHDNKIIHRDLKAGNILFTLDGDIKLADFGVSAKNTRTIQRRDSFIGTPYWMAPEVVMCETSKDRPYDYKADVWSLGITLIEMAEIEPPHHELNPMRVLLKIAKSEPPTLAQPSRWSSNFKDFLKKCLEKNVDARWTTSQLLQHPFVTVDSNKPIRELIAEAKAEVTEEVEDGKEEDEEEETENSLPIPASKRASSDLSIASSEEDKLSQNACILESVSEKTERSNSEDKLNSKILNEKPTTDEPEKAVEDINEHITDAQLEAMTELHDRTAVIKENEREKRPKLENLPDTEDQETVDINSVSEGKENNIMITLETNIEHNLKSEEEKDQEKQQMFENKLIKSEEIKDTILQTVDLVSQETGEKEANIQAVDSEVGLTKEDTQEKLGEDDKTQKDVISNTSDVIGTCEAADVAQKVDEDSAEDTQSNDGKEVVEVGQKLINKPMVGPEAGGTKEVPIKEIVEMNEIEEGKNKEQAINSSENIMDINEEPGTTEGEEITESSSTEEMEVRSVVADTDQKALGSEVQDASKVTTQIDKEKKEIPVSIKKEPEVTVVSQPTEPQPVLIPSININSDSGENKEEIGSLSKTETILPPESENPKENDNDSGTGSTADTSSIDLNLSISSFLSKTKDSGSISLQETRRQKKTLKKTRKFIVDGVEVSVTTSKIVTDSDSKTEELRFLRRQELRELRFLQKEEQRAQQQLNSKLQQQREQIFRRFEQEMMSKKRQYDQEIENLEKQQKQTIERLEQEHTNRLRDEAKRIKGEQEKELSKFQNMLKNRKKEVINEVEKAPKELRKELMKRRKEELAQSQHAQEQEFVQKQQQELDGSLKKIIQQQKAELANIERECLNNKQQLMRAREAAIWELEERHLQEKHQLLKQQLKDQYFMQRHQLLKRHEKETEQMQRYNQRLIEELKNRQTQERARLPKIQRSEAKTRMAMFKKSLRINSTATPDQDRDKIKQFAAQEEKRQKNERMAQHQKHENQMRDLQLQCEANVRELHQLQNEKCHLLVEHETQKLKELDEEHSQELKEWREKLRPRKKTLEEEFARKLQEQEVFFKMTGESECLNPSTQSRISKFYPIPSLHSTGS

As for `Cc1ccc(-c2ccc3c(ccc4sc5c(c43)NC[C@@H](C)NC5=O)n2)cn1`, in assay [1], the % of inhibition worked out at 13%.
In assay [2], `CN(C)C/C=C/C(=O)Nc1ccc(C(=O)N2CCCC(Nc3ncc(Cl)c(-c4c[nH]c5ccccc45)n3)C2)cc1` (stereo not given) gave a % of control of 70%.
With `O=C(NOC[C@H](O)CO)c1ccc(F)c(F)c1Nc1ccc(I)cc1F`, the % of control in assay [3] turned out to be 100%.
With `CC[C@@H]1[C@H](F)C(=O)N[C@@H]1COc1nccc2cc(C(N)=O)c(OC)cc12` [ZIMLOVISERTIB], in assay [4], the % of inhibition came out at 4.43%.
For `C=CC(=O)Nc1ccc(C(=O)Nc2[nH]nc3c2CN(C(=O)N[C@H](CN(C)C)c2ccccc2)C3(C)C)cc1`, in assay [5], the % of engagement stood at 5.7%.
